What is called MIC is the least concentration at which growth counts as inhibited. The half-life is the time needed for the level to fall by half in the phase considered. What is called MBC is the lowest tested concentration that kills the bacteria rather than only halting them.

≈ marks a conversion by molar mass, not a printed value.

Data set [1] deals with Staphylococcus aureus. As to the kind of experiment: Antibacterial activity methicillin resistant Staphylococcus aureus NRS 385 (USA 500) assessed as inhibition of bacterial growth by broth microdilution method. The class given is functional. A general note: In broth dilution the organism is exposed to a series of concentrations in liquid medium.
The test system of data set [2] is Staphylococcus aureus. As to the kind of experiment: Antibacterial activity methicillin resistant Staphylococcus aureus NRS 386 (USA 700) assessed as inhibition of bacterial growth by broth microdilution method. The data set is classed as functional.
Data set [3] deals with Staphylococcus aureus. Briefly: Antibacterial activity methicillin resistant Staphylococcus aureus NRS123 (USA 400) assessed as inhibition of bacterial growth by broth microdilution method. The class given is functional.
The test system of data set [4] is Staphylococcus aureus. As to the kind of experiment: Antibiofilm activity against methicillin resistant Staphylococcus aureus assessed as reduction in biofilm formation at 2 times of MIC by microtiter plate biofilm formation assay. The data set is classed as functional. Also noted: scale not given: the % may be the effect or the level left.
Data set [5] relates to Staphylococcus aureus. As to the kind of experiment: Antibacterial activity methicillin resistant Staphylococcus aureus NRS 483 (USA 1000) assessed as inhibition of bacterial growth by broth microdilution method. The data set is classed as functional.
Data set [6] deals with Staphylococcus aureus. As to the kind of experiment: Antibacterial activity methicillin resistant Staphylococcus aureus NRS 108 assessed as inhibition of bacterial growth by broth microdilution method. The data set is classed as functional.
Data set [7] relates to Staphylococcus aureus. As to the kind of experiment: Antibacterial activity methicillin resistant Staphylococcus aureus NRS384 (USA 300) assessed as inhibition of bacterial growth by broth microdilution method. The class given is functional.
The subject of data set [8] is Staphylococcus aureus. As to the kind of experiment: Antibacterial activity methicillin resistant Staphylococcus aureus NRS 484 (USA 1100) assessed as inhibition of bacterial growth by broth microdilution method. The class given is functional.
For data set [9], the system named is Staphylococcus aureus. Briefly: Antibacterial activity methicillin resistant Staphylococcus aureus NRS 194 assessed as inhibition of bacterial growth by broth microdilution method. The class given is functional.
Data set [10] can be described thus: Half-life in rat at 25 mg/kg, po. The class given is ADME, organism-based. As to conditions: in vivo.
Data set [11] has as its system Staphylococcus aureus. As to the kind of experiment: Antibacterial activity methicillin resistant Staphylococcus aureus NRS 387 (USA 800) assessed as inhibition of bacterial growth by broth microdilution method. The class given is functional.
Data set [12] concerns Staphylococcus aureus. As to the kind of experiment: Antibacterial activity methicillin resistant Staphylococcus aureus NRS 382 (USA 100) assessed as inhibition of bacterial growth by broth microdilution method. The class given is functional.
Data set [13] concerns Staphylococcus aureus. As to the kind of experiment: Antibacterial activity methicillin resistant Staphylococcus aureus NRS 383 (USA 200) assessed as inhibition of bacterial growth by broth microdilution method. The class given is functional.
Data set [14] deals with Staphylococcus aureus. As to the kind of experiment: Antibacterial activity methicillin resistant Staphylococcus aureus 2658 RCMB assessed as inhibition of bacterial growth by broth microdilution method. The class given is functional.
Data set [15] has as its system Staphylococcus aureus. Briefly: Antibacterial activity methicillin resistant Staphylococcus aureus NRS 119 assessed as inhibition of bacterial growth by broth microdilution method. The data set is classed as functional. As to conditions: NRS119.
A short description of data set [16]: Cytotoxicity against human HepG2 cells assessed as inhibition of cell growth incubated for 24 hrs by WST-1 assay. The class given is toxicity, cell-based. As to conditions: read-out: LD50. A general note: Tetrazolium assays rely on reduction of a dye to a coloured formazan, in cell work by metabolically active cells.
For data set [17], the system named is Staphylococcus aureus. As to the kind of experiment: Antibacterial activity against methicillin resistant Staphylococcus aureus USA300 assessed as inhibition of bacterial growth incubated for 16 to 20 hrs by CLSI protocol based Mueller-Hinton broth method. The class given is functional. Conditions: time 16-20 hrs.
Data set [18] relates to Staphylococcus aureus. Briefly: Antibacterial activity against methicillin resistant Staphylococcus aureus MW2 assessed as inhibition of bacterial growth incubated for 16 to 20 hrs by CLSI protocol based Mueller-Hinton broth method. The data set is classed as functional. As to conditions: time 16-20 hrs.
Data set [19] relates to Staphylococcus aureus. As to the kind of experiment: Potency index, ratio of ciprofloxacin MIC to test compound MIC for antibacterial activity against methicillin resistant Staphylococcus aureus ATCC 43300 assessed as inhibition of bacterial growth incubated for 24 to 48 hrs by spectrophotometric analysis. The class given is functional. As to conditions: time 24-48 hrs.

The subject of data set [20] is Staphylococcus aureus. As to the kind of experiment: Potency index, ratio of chloramphenicol MIC to test compound MIC for antibacterial activity against methicillin resistant Staphylococcus aureus ATCC 43300 assessed as inhibition of bacterial growth incubated for 24 to 48 hrs by spectrophotometric analysis. As to conditions: time 24-48 hrs. The data set is classed as functional.

The test system of data set [21] is Staphylococcus aureus. As to the kind of experiment: Antibacterial activity against methicillin resistant Staphylococcus aureus ATCC 43300 assessed as inhibition of bacterial growth incubated for 24 to 48 hrs by spectrophotometric analysis. The class given is functional. Conditions: time 24-48 hrs.
For data set [22], the system named is Staphylococcus aureus. As to the kind of experiment: Antibacterial activity against methicillin resistant Staphylococcus aureus 42 assessed as inhibition of bacterial growth. The data set is classed as functional.
For data set [23], the system named is Staphylococcus aureus. As to the kind of experiment: Potency index, ratio of cefepime MIC to test compound MIC for antibacterial activity against methicillin resistant Staphylococcus aureus 42 assessed as inhibition of bacterial growth. The class given is functional.
Data set [24] concerns Staphylococcus aureus. Briefly: Antibacterial activity against methicillin resistant Staphylococcus aureus 128 assessed as inhibition of bacterial growth. The data set is classed as functional.
Data set [25] relates to Staphylococcus aureus. Briefly: Antibacterial activity against methicillin resistant Staphylococcus aureus 747 assessed as inhibition of bacterial growth. The data set is classed as functional.
In data set [26] the test system is Staphylococcus aureus. As to the kind of experiment: Antibacterial activity against methicillin resistant Staphylococcus aureus 181 assessed as inhibition of bacterial growth. The class given is functional.

As to `Cc1nc(-c2ccc(C(C)(C)C)cc2)sc1-c1nnc(N2CC(O)C2)o1`, the MIC with Staphylococcus aureus [1], with Staphylococcus aureus [2], with Staphylococcus aureus [3], in the data set with Staphylococcus aureus [5], in the data set on Staphylococcus aureus [6] and in the data set on Staphylococcus aureus [7] was 4 µg/mL (≈ 10.8 µM) each time. Besides, the MIC with Staphylococcus aureus [8] was 4 µg/mL (≈ 10.8 µM); in the data set with Staphylococcus aureus [9] it was 4 µg/mL (≈ 10.8 µM); in the data set on Staphylococcus aureus [11] it was 4 µg/mL (≈ 10.8 µM); in the data set with Staphylococcus aureus [12] it was 4 µg/mL (≈ 10.8 µM); with Staphylococcus aureus [13], 4 µg/mL (≈ 10.8 µM); with Staphylococcus aureus [14], 3.12 µg/mL (≈ 8.42 µM). Also, the MIC in the data set on Staphylococcus aureus [15] worked out at 4 µg/mL (≈ 10.8 µM). In addition, in the data set with Staphylococcus aureus [4], the Activity worked out at 41%. Moreover, the half-life in [10] is 5.5 h.

For `O=C(Nc1nnc(-c2ccc3c(c2)CCCC3)o1)C1CC1`, the CC50 at 24 h in [16] was greater than 32 µg/mL. Further, the MBC with Staphylococcus aureus [17] and in the data set on Staphylococcus aureus [18] was 16 µg/mL (≈ 56.5 µM) each time.

Consider `O=C(/C=C/c1ccc(F)cc1)N1N=C(c2ccncc2)OC1c1cn(-c2ccccc2)nc1-c1ccc(F)cc1` (stereo unspecified), for which the Ratio was 4 in the data set with Staphylococcus aureus [19] and 8 with Staphylococcus aureus [20]. Moreover, the MIC in the data set on Staphylococcus aureus [21] came out at 6.25 µg/mL (≈ 11.7 µM).

Take `O=c1c(Br)cnc2onc(-c3ccc(F)cc3F)n12`: the minimum inhibitory concentration (MIC) in the data set on Staphylococcus aureus [22] is 12.4 µg/mL (≈ 37.8 µM); with Staphylococcus aureus [24] it was 17.6 µg/mL (≈ 53.6 µM); in the data set with Staphylococcus aureus [25], 29.9 µg/mL (≈ 91.1 µM); with Staphylococcus aureus [26] it was 29.9 µg/mL (≈ 91.1 µM). The Ratio in the data set on Staphylococcus aureus [23] is 3.

Source of the values: ChEMBL document CHEMBL5241069, “A key review on oxadiazole analogs as potential methicillin-resistant Staphylococcus aureus (MRSA) activity: Structure-activity relationship studies” (Eur J Med Chem, 2021).
